From ChEMBL document CHEMBL3997833, “Efficient synthesis of α-fluoromethylhistidine di-hydrochloride and demonstration of its efficacy as a glutathione S-transferase inhibitor” (Bioorg Med Chem Lett, 2017)

What was measured:
[1] = system: GST (glutathione S-transferase); experiment: (§1) Inhibition of Schistosoma japonicum C-terminal His6-tagged GST expressed in Escherichia coli BL21(DE3) assessed as reduction in GSH transfer activity by measuring residual activity at 10 mM using GSH/CDNB co-substrate mixture preincubated for 10 mins followed by substrate addition by colorimetric method relative to control; conditions: probe GSH/CDNB co-substrate mixture, read-out: Activity
[2] = system: GST (glutathione S-transferase); experiment: as §1, with “150 uM” for “10 mM”; conditions: probe GSH/CDNB co-substrate mixture, read-out: Activity

Nc1ccc(C(=O)O)cc1 [AMINOBENZOIC ACID]
activity at 10000 µM [1]: 33%

N[C@@](CF)(Cc1cnc[nH]1)C(=O)O
activity at 150 µM [2]: 57%
